Key:
Format in all cases: cell-based
[1] = tested on: Lactobacillus fermentum; assay: Bioethanol fermentation of 33% corn flour dispersion with Saccharomyces cerevisiae contaminated with Lactobacillus fermentum; conditions: for Ethanol / Glucose (residual, non-fermented) / Lactic acid: 72 hours at 32° C., Sc + Lf inoculum, Virg 2 ppm, MSB 20 ppm
Method: The capacity of menadione sodium bisulfite to contrast the negative effect of bacterial contamination on the production of bioethanol is tested by using a 33% aqueous dispersion of corn flour, which is a typical substrate used in the bioethanol industry.
Using this dispersion, four parts of 40 ml each are prepared and are placed in four separate flasks (procedure described by Bischoff K. M. et al. in Biotechnology and Bioengineering 2009, 103, 117-122).
Flask 1 (witness) receives the addition of 0.5 ml of inoculum (Sc) of Saccharomyces cerevisiae (1×10^7 ufc/ml). Flask 2 receives the addition of 0.5 ml of inoculum (Sc) of Saccharomyces and 0.5 ml of inoculum (Lf) of Lactobacillus fermentum (1×10^8 ufc/ml); flask 3 receives the addition of 0.5 ml of inoculum (Sc) of Saccharomyces, 0.5 ml of inoculum (Lf) of Lactobacillus fermentum and 0.5 ml of a solution of virginiamycin with such a titer as to have, in the flask, a concentration of antibiotic equal to 2 mg/l. Flask 4 receives the addition of 0.5 ml of inoculum (Sc) of Saccharomyces, 0.5 ml of inoculum (Lf) of Lactobacillus fermentum and 0.5 ml of a solution of menadione sodium bisulfite (1600 mg/l ) with such a titer as to have in the flask a concentration of MSB equal to 20 ppm by weight.
Then the four flasks are kept under bland agitation and at the temperature of 32° C. for 72 hours. At the end of the incubation period, the four parts are analyzed for their content of ethanol, glucose and lactic acid.

[2] = tested on: Lactobacillus plantarum; assay: Pasteurized 20% molasses solution inoculated with Lactobacillus plantarum; conditions: 48 hours at 25° C., MSB 50 ppm, MSB-C 100 ppm; for Lactic acid / Ufc/l (bacterial load): virginiamycin 2 mg/l
Method: A 20% solution of molasses is pasteurized at 65° C. for 30 minutes. After cooling, five 50-ml parts are formed: of these, one is kept as a control and the remaining four each receive the addition of 1 ml of inoculum (Lp) of Lactobacillus plantarum (1×10^5 ufc/ml). The third part then receives the addition of 2 mg/l of virginiamycin, the fourth part receives the addition of 50 ppm of menadione sodium bisulfite, while the fifth part receives the addition of 100 ppm of a mixture of menadione sodium bisulfite and sodium bisulfite known as MSB-C (composition of mixture: 65% MSB and 35% sodium bisulfite).

[3] = tested on: Oenococcus oeni; assay: Pasteurized 30% glycerol solution inoculated with Oenococcus oeni; conditions: 48 hours at 25° C.; Penicillin 10 mg/l, emulsion A 20 mg/l, emulsion B 150 mg/l
Method: A 30% solution of glycerol is pasteurized at 65° C. for 30 minutes. After cooling, four 50-ml parts are formed, each of which receives the addition of 1 ml of inoculum (00) of Oenococcus oeni, so as to have a bacterial load of 1×10^5 ufc/l.
The first part is kept as a control; the second part receives the addition of 10 mg/l of Penicillin (Pen); the third part receives the addition of 20 mg/l of an emulsion A of menadione (composition: 50% menadione, 50% ethanol); the fourth part receives the addition of 150 mg/l of an emulsion B of menadione (composition: menadione 10%, ricinoleate 90%).

[4] = tested on: broad spectrum of microorganisms, including yeasts; assay: Biocidal activity in a liquid biomass; conditions: weight of menadione/total weight of the biomass and of the compound
[5] = tested on: Saccharomyces cerevisiae; assay: Growth of Saccharomyces cerevisiae strains in liquid biomass containing menadione

| Molecule | Ethanol [1] | Glucose (residual, non-fermented) [1] | Lactic acid [1] | Effect on the bacterial inoculum ([1]; flask 4, MSB 20 ppm) | Effect on growth of the yeast ([1]; flask 4, MSB 20 ppm, Saccharomyces cerevisiae) | Lactic acid [2] | Ufc/l (bacterial load) [2] | Effect on the bacterial inoculum [2] | Ufc/l (bacterial load) [3] | Concentration from which biocidal activity is exhibited [4] | Menadione concentration that allows growth of all the tested strains ([5]; liquid biomass) | Growth response of Saccharomyces cerevisiae ([5]; menadione concentration between 400 and 500 ppm) |
| --- | --- | --- | --- | --- | --- | --- | --- | --- | --- | --- | --- | --- |
| CC1(S(=O)(=O)[O-])CC(=O)c2ccccc2C1=O.[Na+] (centres unmarked) [MSB, menadione sodium bisulfite] | 111.3 g/L | 6.2 g/L | 0.5 g/L | able to inhibit the bacterial inoculum | has not harmed the growth of the yeast | 0.40 g/L | <1 × 10^3 Ufc/l | inhibiting completely the bacterial inoculum | – | – | – | – |
| Penicillin | – | – | – | – | – | – | – | – | <1 × 10^2 Ufc/l | – | – | – |
| virginiamycin [reference compound] | 108.2 g/L | 6.4 g/L | 0.4 g/L | – | – | 0.15 g/L | <1 × 10^2 Ufc/l | – | – | – | – | – |
| CC1=CC(=O)c2ccccc2C1=O [menadione, 2-methylnaphthalene-1,4-dione] | – | – | – | – | – | – | – | – | – | at least 500 ppm | below 400 ppm | varies depending on the tested strains |
